Results reported in ChEMBL document CHEMBL1125038, “Synthesis and antiinflammatory activity of cis- and trans-6,6a,7,8,9,10,10a,11-octahydro-11-oxodibenzo[b,e]thiepinacetic and -oxepinacetic acids” (J Med Chem, 1990).
Several values for one entry are separate records, joined by “and”; a condition that tells them apart may be missing. Equal values may be shown once.

Columns and labels:
Rattus norvegicus [1] = assay: Inhibition of carrageenan hind paw edema in rats after oral administration of a dose of 5 mg/kg; format: functional
[2] = Safety index is the ratio of UD50 to ED50 in carrageenan hind paw edema; ca. 25; format: toxicity; details: read-out: Safety index
Rattus norvegicus [3] = assay: Antiinflammatory activity was determined against rat carrageenan hind paw edema, after oral administration; format: functional
Rattus norvegicus [4] = species: Rattus norvegicus; assay: Analgesic activity was determined by measuring the dose required to inhibit acetic acid induced writhing; format: functional
Rattus norvegicus [5] = species: Rattus norvegicus; assay: The compound was tested for gastric ulcerogenicity in rats; ca. 57; format: functional, Stomach
Rattus norvegicus [6] = species: Rattus norvegicus; assay: The compound was tested for gastric ulcerogenicity in rats; format: functional, Stomach
[7] = Safety index is the ratio of UD50 to ED50 in carrageenan hind paw edema; format: toxicity; details: read-out: Safety index
[8] = The compound was tested for acute toxicity in mice after oral administration; format: organism-based; details: mouse, in vivo
Rattus norvegicus [9] = assay: Antiinflammatory activity was determined against rats carrageenan hind paw edema after oral administration; format: functional
Rattus norvegicus [10] = assay: Antiinflammatory activity was determined against rats carrageenan hind paw edema, after oral administration; ca. 40; format: functional
[11] = The compound was tested for acute toxicity in mice after oral administration; ca. 200; format: organism-based; details: mouse, in vivo
[12] = Safety index is the ratio of UD50 to ED50 in carrageenan hind paw edema; ca. 20; format: toxicity; details: read-out: Safety index
Rattus norvegicus [13] = species: Rattus norvegicus; assay: The compound was tested for gastric ulcerogenicity in rats; ca. 30; format: functional, Stomach
Rattus norvegicus [14] = assay: Antiinflammatory activity was determined against rat carrageenan hind paw edema after oral administration of a dose of 40 mg/kg
Rattus norvegicus [15] = species: Rattus norvegicus; assay: The compound was tested for gastric ulcerogenicity in rats; ca. 8; format: functional, Stomach

Row | Structure (SMILES) | inhibition in vivo at 5 mg/kg (Rattus norvegicus [1]) [%] | ED50 (Rattus norvegicus [9]) [mg/kg] | also measured
1 | CC(C(=O)OCc1ccccc1)c1ccc2c(c1)SCC1CCCCC1C2=O (centres undefined) | 25.6 | – | –
2 | CC(C(N)=O)c1ccc2c(c1)SCC1CCCCC1C2=O (centres undefined) | 30.5 | – | –
3 | CCCCCCOC(=O)C(C)c1ccc2c(c1)SCC1CCCCC1C2=O (centres undefined) | 28.3 | – | –
4 | CC(C(=O)OCC(=O)c1ccccc1)c1ccc2c(c1)SCC1CCCCC1C2=O (centres undefined) | 26.6 | – | –
5 | CC(C(=O)N(C)C)c1ccc2c(c1)SCC1CCCCC1C2=O (centres undefined) | 2.7 | – | –
6 | CCCCCOC(=O)C(C)c1ccc2c(c1)SCC1CCCCC1C2=O (centres undefined) | 22.1 | – | –
7 | CC(C)OC(=O)C(C)c1ccc2c(c1)SCC1CCCCC1C2=O (centres undefined) | 25.6 | – | –
8 | CC(C(=O)OC1CCCCC1)c1ccc2c(c1)SCC1CCCCC1C2=O (centres undefined) | 15.6 | – | –
9 | CCOCCOC(=O)C(C)c1ccc2c(c1)SCC1CCCCC1C2=O (centres undefined) | 34.6 | – | –
10 | CC(C(=O)OCCOCCO)c1ccc2c(c1)SCC1CCCCC1C2=O (centres undefined) | 28.1 | – | –
11 | CC(C)COC(=O)C(C)c1ccc2c(c1)SCC1CCCCC1C2=O (centres undefined) | 29.3 | – | –
12 | CCOC(=O)C(C)c1ccc2c(c1)SCC1CCCCC1C2=O (centres undefined) | 38.3 | – | selectivity ratio [2]: 25; ED50 (Rattus norvegicus [3]; Rattus norvegicus, po, read-out: ED50): 2.24 mg/kg; ED50 (Rattus norvegicus [4]): 0.31 mg/kg; UD50 (Rattus norvegicus [5]): 57 mg/kg
13 | CC(C(=O)Oc1ccccc1)c1ccc2c(c1)SCC1CCCCC1C2=O (centres undefined) | 22 | – | –
14 | CC(C(=O)NCc1ccccc1)c1ccc2c(c1)SCC1CCCCC1C2=O (centres undefined) | -5.5 | – | –
15 | CC(C(=O)N1CCCCC1)c1ccc2c(c1)SCC1CCCCC1C2=O (centres undefined) | 5.3 | – | –
16 | CC(C(=O)NCCO)c1ccc2c(c1)SCC1CCCCC1C2=O (centres undefined) | 22.3 | – | –
17 | CC(C(=O)OCc1cccnc1)c1ccc2c(c1)SCC1CCCCC1C2=O (centres undefined) | 29.9 | – | –
18 | CC(C(=O)NO)c1ccc2c(c1)SCC1CCCCC1C2=O (centres undefined) | 29.9 | – | –
19 | CCCOC(=O)C(C)c1ccc2c(c1)SCC1CCCCC1C2=O (centres undefined) | 25.4 | – | –
20 | CC(C(=O)OC/C=C/c1ccccc1)c1ccc2c(c1)SCC1CCCCC1C2=O (centres undefined) | 20.3 | – | –
21 | CC(C(=O)OCCN1CCOCC1)c1ccc2c(c1)SCC1CCCCC1C2=O (centres undefined) | 22.2 | – | –
22 | CC(C(=O)OCCc1ccccn1)c1ccc2c(c1)SCC1CCCCC1C2=O (centres undefined) | 25.5 | – | –
23 | CNC(=O)C(C)c1ccc2c(c1)SCC1CCCCC1C2=O (centres undefined) | 14.6 | – | –
24 | CC(C(=O)N1CCN(C)CC1)c1ccc2c(c1)SCC1CCCCC1C2=O (centres undefined) | 5.3 | – | –
25 | CC(C(=O)NCC(=O)O)c1ccc2c(c1)SCC1CCCCC1C2=O (centres undefined) | 29.7 | – | –
26 | CC(C(=O)OCc1ccccn1)c1ccc2c(c1)SCC1CCCCC1C2=O (centres undefined) | 30.6 | – | –

Row | Structure (SMILES) | inhibition in vivo at 5 mg/kg (Rattus norvegicus [1]) [%] | ED50 (Rattus norvegicus [9]) [mg/kg] | also measured
27 | CC(C(=O)N1CCOCC1)c1ccc2c(c1)SCC1CCCCC1C2=O (centres undefined) | 7.1 | – | –
28 | CCCCOC(=O)C(C)c1ccc2c(c1)SCC1CCCCC1C2=O (centres undefined) | 26 | – | –
29 | CC(C(=O)OCCc1ccccc1)c1ccc2c(c1)SCC1CCCCC1C2=O (centres undefined) | 39.1 | – | UD50 (Rattus norvegicus [6]): >124 mg/kg; selectivity ratio [7]: > 35; ED50 (Rattus norvegicus [3]): 3.53 mg/kg and 1.5 mg/kg; LD50 [8]: 644 mg/kg
30 | CC(C(=O)OCCCc1ccccc1)c1ccc2c(c1)SCC1CCCCC1C2=O (centres undefined) | 26 | – | –
31 | CCOC(=O)COC(=O)C(C)c1ccc2c(c1)SCC1CCCCC1C2=O (centres undefined) | 20.2 | – | –
32 | COC(=O)C(C)c1ccc2c(c1)SCC1CCCCC1C2=O (centres undefined) | 21.6 | – | –
33 | C=CCOC(=O)C(C)c1ccc2c(c1)SCC1CCCCC1C2=O (centres undefined) | 33.5 | – | –
34 | O=C(O)Cc1ccc2c(c1)C(=O)[C@H]1CCCC[C@@H]1CO2 (relative stereo) | – | > 40 | –
35 | O=C(O)Cc1ccc2c(c1)OC[C@H]1CCCC[C@H]1C2=O (relative stereo) | – | > 40 | –
36 | O=C(O)Cc1ccc2c(c1)C(=O)[C@@H]1CCCC[C@@H]1CS2 (relative stereo) | – | > 40 | –
37 | O=C(O)Cc1ccc2c(c1)SC[C@H]1CCCC[C@@H]1C2=O (relative stereo) | – | 3.24 | –
38 | O=C(O)Cc1ccc2c(c1)C(=O)[C@@H]1CCCC[C@@H]1CO2 (relative stereo) | – | > 40 | –
39 | O=C(O)Cc1ccc2c(c1)C(=O)[C@H]1CCCC[C@@H]1CS2 (relative stereo) | – | > 40 | –
40 | O=C(O)Cc1ccc2c(c1)SC[C@H]1CCCC[C@H]1C2=O (relative stereo) | – | > 40 | –
41 | CC(C(=O)O)c1ccc2c(c1)C(=O)[C@H]1CCCC[C@@H]1CS2 (relative stereo) | – | – | ED50 (Rattus norvegicus [10]): 40 mg/kg
42 | O=C(O)Cc1ccc2c(c1)OC[C@H]1CCCC[C@@H]1C2=O (relative stereo) | – | 22.1 | –
43 | CC(C(=O)O)c1ccc2c(c1)OC[C@H]1CCCC[C@@H]1C2=O (relative stereo) | – | 1.52 | –
44 | CC(C(=O)O)c1ccc2c(c1)OC[C@H]1CCCC[C@H]1C2=O (relative stereo) | – | > 40 | –
45 | CC(C(=O)O)c1ccc2c(c1)C(=O)[C@@H]1CCCC[C@@H]1CS2 (relative stereo) | – | > 40 | –
46 | CC(C(=O)O)c1ccc2c(c1)C(=O)[C@@H]1CCCC[C@@H]1CO2 (relative stereo) | – | > 40 | –
47 | CC(C(=O)O)c1ccc2c(c1)SC[C@H]1CCCC[C@@H]1C2=O (relative stereo) | – | 1.53 | LD50 [11]: 200 mg/kg; selectivity ratio [12]: 20; ED50 (Rattus norvegicus [4]): 0.39 mg/kg; UD50 (Rattus norvegicus [13]): 30 mg/kg
48 | CC(C(=O)O)c1ccc2c(c1)C(=O)[C@H]1CCCC[C@@H]1CO2 (relative stereo) | – | > 40 | –
49 | CC(C(=O)O)c1ccc2c(c1)SC[C@H]1CCCC[C@H]1C2=O (relative stereo) | – | > 40 | –
50 | CC(C(=O)O)c1ccc2c(c1)SC[C@H]1CCCC[C@@H]1C2=O (relative stereo; form 1) | – | – | ED50 (Rattus norvegicus [14]): 1.89 mg/kg
51 | CC(C(=O)O)c1ccc2c(c1)SC[C@H]1CCCC[C@@H]1C2=O (relative stereo; form 2) | – | – | ED50 (Rattus norvegicus [14]): 37.1 mg/kg
52 | COc1ccc2c(c1)c(CC(=O)O)c(C)n2C(=O)c1ccc(Cl)cc1 [INDOMETHACIN] | 36.3 | 3.3 | UD50 (Rattus norvegicus [15]): 8 mg/kg; selectivity ratio [7]: 2.4; ED50 (Rattus norvegicus [4]): 0.44 mg/kg; LD50 [8]: 23 mg/kg
